Patent US10023591B2, “Heterocyclic derivatives and use thereof” (C&C RESEARCH LABORATORIES, priority 2014, dated 2018)

How the values were obtained:
STAT1 = STAT1 reporter gene assay (luciferase), U2OS stable cell line pGL4-STAT1-TA-luc, IFN-γ stimulation; assay type: cell-based, human; details: Homo sapiens, IFN-γ 50 ng/mL, 8 hours, read-out: IC50 (μM) pSTAT1
Method in brief: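 U2OS cells stably carrying a STAT1-driven luciferase reporter were treated with serially diluted compounds plus IFN-γ (50 ng/mL final) for 8 h at 37 °C in 10% FBS medium. Luciferase read after lysis; parallel plate assessed for cytotoxicity by CellTiter-Glo.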

[1] = system: NCI-N87 stomach cancer cell line; experiment: Cell growth inhibition assay, NCI-N87 (CellTiter-Glo); assay type: cell-based; details: Homo sapiens; NCI-N87, 5,000 cells/well, 96 hours
Method in brief: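 Cells seeded at 3,000 (DU-145), 5,000 (NCI-N87) or 10,000 (LNCaP, MDA-MB-468) per well, LNCaP in medium with 10 ng/mL IL-6. Serially diluted compound for 96 h at 37 °C (MDA-MB-468 in air, others 5% CO2); viability by CellTiter-Glo luminescence versus 0.1% DMSO wells.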

[2] = system: MDA-MB-468 breast cancer cell line; experiment: Cell growth inhibition assay, MDA-MB-468 (CellTiter-Glo); assay type: cell-based; details: Homo sapiens, MDA-MB-468, 96 hours
Description: The inhibitory effects of the compounds of the present invention against the growth of cancer cells were evaluated as shown below. The cancer cell lines including prostate cancer cell lines (LNCaP, DU-145), stomach cancer cell line (NCI-N87), and breast cancer cell lines (MDA-MB-468) were cultured under the protocol provided by each supplier. A medium supplemented with 10 ng/mL of IL-6 was used for LNCaP, a prostate cancer cell line, when treated with a drug. Each type of cells to be used in experiments was sub-cultured in a 96-well plate by counting the exact number of cells using Tali™ Image-based Cytometer (Life Technologies). In a 96-well plate, DU-145 was employed with 3,000 cells/well; NCI-N87 was employed with 5,000 cells/well; and LNCaP and MDA-MB-468 were employed with 10,000 cells/well. The cells were treated with the compounds listed in Examples which were diluted in various concentrations. Upon completion of the compounds treatment, LNCaP, DU-145, NCI-N87 cells were cultured at 37° C. under 5% CO2 for 96 hours, and MDA-MB-468 cells were cultured at 37° C. in air for 96 hours. Subsequently, the cells were observed under microscope and drug precipitation and particular findings were investigated and recorded. And then, the 96-well plate was placed at room temperature for 30 minutes, added with 20 pt/well of CellTiter-Glo solution (Cat No. G7573, Promega) and shaken for 10 minutes, followed by being subjected to the measurement using PHERAstar™ microplate reader (BMG LABTECH) according to the supplier's general luminometer protocol. Wells where only culture liquid added without cell plating were used as a negative control, whereas wells where culture liquid containing 0.1% DMSO instead of the compounds listed in Examples were used as a positive control.

STAT3 = STAT3 reporter gene assay (luciferase), LNCaP stable cell line pSTAT3-TA-luc, IL-6 stimulation; assay type: cell-based, human; details: Homo sapiens
Method in brief: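 LNCaP cells stably carrying pSTAT3-TA-luc were plated 24 h in 3% DCC-FBS medium, then given compound followed by IL-6 (10 ng/mL final) for 24 h at 37 °C. Luciferase was read from lysates, with CellTiter-Glo viability on a duplicate plate. Stimulated 0.1% DMSO wells served as uninhibited control.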

IC50 (STAT1) [µM]	IC50 [1] [µM]	IC50 [2] [µM]	IC50 (STAT3) [µM]	SMILES
> 50	0.15	0.024	0.089	CC(C)(c1ccc2sc(C(=O)Nc3cc(Cl)nc(OCc4ccc(Cl)cc4)c3)cc2c1)S(C)(=O)=O [Example 86, N-(2-chloro-6-((4-chlorobenzyl)oxy)pyridin-4-yl)-5-(2-(methylsulfonyl)propan-2-yl)benzo[b]thiophene-2-carboxamide]
12.8	7.8	> 0.1	2.8	Cc1csc(Oc2cc(NC(=O)c3cc4cc(C(C)(C)S(C)(=O)=O)ccc4s3)cc(Cl)n2)n1 [Example 119, N-(2-chloro-6-((4-methylthiazol-2-yl)oxy)pyridin-4-yl)-5-(2-(methylsulfonyl)propan-2-yl)benzo[b]thiophene-2-carboxamide]
> 50	0.14	0.021	0.019	Cc1sccc1Oc1cc(NC(=O)c2cc3cc(C(C)(C)S(C)(=O)=O)ccc3s2)cc(Cl)n1 [Example 115, N-(2-chloro-6-((2-methylthiophen-3-yl)oxy)pyridin-4-yl)-5-(2-(methylsulfonyl)propan-2-yl)benzo[b]thiophene-2-carboxamide]
> 50	0.02	0.0052	0.0082	CC(C)(c1ccc2sc(C(=O)Nc3cc(Cl)nc(Oc4ccc(Cl)cc4F)c3)cc2c1)S(C)(=O)=O [Example 83, N-(2-chloro-6-(4-chloro-2-fluorophenoxy)pyridin-4-yl)-5-(2-(methylsulfonyl)propan-2-yl)benzo[b]thiophene-2-carboxamide]
> 50	0.15	0.027	0.027	CC(C)(c1ccc2sc(C(=O)Nc3cc(Cl)nc(Oc4ccsc4Cl)c3)cc2c1)S(C)(=O)=O [Example 121, N-(2-chloro-6-((2-chlorothiophen-3-yl)oxy)pyridin-4-yl)-5-(2-(methylsulfonyl)propan-2-yl)benzo[b]thiophene-2-carboxamide]
39.6	0.12	0.026	0.078	Cc1ccc(Oc2cc(NC(=O)c3cc4cc(C(C)(C)S(C)(=O)=O)ccc4s3)cc(Cl)n2)s1 [Example 120, N-(2-chloro-6-((5-methylthiophen-2-yl)oxy)pyridin-4-yl)-5-(2-(methylsulfonyl)propan-2-yl)benzo[b]thiophene-2-carboxamide]
> 50	0.043	0.0074	0.041	CC(C)(c1ccc2sc(C(=O)Nc3cc(Cl)nc(Oc4ccc(F)c(F)c4)c3)cc2c1)S(C)(=O)=O [Example 79, N-(2-chloro-6-(3,4-difluorophenoxy)pyridin-4-yl)-5-(2-(methylsulfonyl)propan-2-yl)benzo[b]thiophene-2-carboxamide]
> 50	0.021	0.004	0.01	CC(C)(c1ccc2sc(C(=O)Nc3cc(Cl)nc(Oc4ccc(Cl)c(F)c4)c3)cc2c1)S(C)(=O)=O [Example 72, N-(2-chloro-6-(4-chloro-3-fluorophenoxy)pyridin-4-yl)-5-(2-(methylsulfonyl)propan-2-yl)benzo[b]thiophene-2-carboxamide]
> 50	0.035	0.0041	0.0058	CC(C)(c1ccc2sc(C(=O)Nc3cc(Cl)nc(Oc4ccc(Cl)c(Cl)c4)c3)cc2c1)S(C)(=O)=O [Example 82, N-(2-chloro-6-(3,4-dichlorophenoxy)pyridin-4-yl)-5-(2-(methylsulfonyl)propan-2-yl)benzo[b]thiophene-2-carboxamide]
> 50	1.7	0.068	0.46	Cc1cnc(Oc2cc(NC(=O)c3cc4cc(C(C)(C)S(C)(=O)=O)ccc4s3)cc(Cl)n2)s1 [Example 109, N-(2-chloro-6-((5-methylthiazol-2-yl)oxy)pyridin-4-yl)-5-(2-(methylsulfonyl)propan-2-yl)benzo[b]thiophene-2-carboxamide]
